Reference: US20040005291A1, “Methods for regulating co-stimulatory molecule expression with reactive oxygen” (priority 2001, published 2004)

How the values were obtained:
Fas and B7 = Fas and B7 levels in cells in the presence of 2-deoxyglucose; assay type: cell-based; conditions: cells where glucose cannot bind to its receptor
Description: […] Cells were then harvested, stained with fluorescent labeled anti-Fas, or with isotype controls as indicated. […] Data were analyzed using Becton Dickinson CellQuest software.

B7.2 on HL60 cells = conditions: 0.25 mM H202, 48 hours
Description: (§1) The cells were then exposed to 200 mW of low frequency microwaves for 30 minutes, 1 hour, or 3 hours. Cells were then stained with DCF-DA (Molecular Probes, Inc. Eugene, Oreg.) as an indicator of relative levels of H202. Cells were also stained with fluorescent labeled antibodies to human B7.2 (Pharmingen, Inc.), versus fluorescent labeled, isotype matched control antibodies, upper panels, left and right, respectively. Indicated levels represent the ratio of specific B7.2 stain over the fluorescently labeled isotype control for each condition. Replicate samples, microwaved for the indicated time periods, were subsequently cultured for an additional 21 hours and stained for H202 and B7.2, as indicated, lower panels. Cells were analyzed flow cytometrically using a Coulter Excel Flow Cytometer. Data were analyzed using Becton Dickinson CellQuest software.
(§2) Methods: Human myelocyte cells U937, HL60, PC12, and PC12Trk cells were cultured in the presence of subcytotoxic doses (0.25 mM) of H202 for 48 hours, harvested and stained with isotype controls or fluorescent labeled anti-B7.2 as described in Example 1. Cells were analyzed flow cytometrically using a Coulter Excel Flow Cytometer. Data were analyzed using Becton Dickinson CellQuest software.

[1] = tested on: B7.2 on PC12 neural cell line; conditions: PC12 cells, 0.25 mM H202, 48 hours
Description: as §1, §2

[2] = tested on: B7.2 on PC12Trk neural cell line; conditions: PC12Trk cells, 0.25 mM H202, 48 hours
Description: as §1, §2

B7.2 on U937 cells = conditions: 0.25 mM H202, 48 hours
Description: as §1, §2

B7 on MCF7 cells = conditions: H2O2 at subcytotoxic levels
Description: We added H2O2 (at subcytotoxic levels) directly to cells (MCF7, HL60, U937, and neural cells PC12 and PC12Trk^15) in culture to see if this caused changes in B7 expression.

[3] = tested on: B7.1 on keratinocyte cell line; conditions: mouse keratinocyte cell line, 0.25 mM H2O2, 12 or 24 hours
Description: (§3) A mouse keratinocyte cell line was incubated with or without 0.25 mM Hydrogen Peroxide (H2O2) for 12 or 24 hours. Then the level of B7.1 and Fas were evaluated. The data is attached as FIGS. 3A and 3B.

[4] = tested on: Fas on keratinocyte cell line; conditions: mouse keratinocyte cell line, 0.25 mM H2O2, 12 or 24 hours
Description: as §3

[5] = tested on: reactive oxygen in neural stem cells; conditions: DCF-DA stain, FIG. 4
Description: FIG. 4 is a graph depicting the effects of ethanol in neural stem cells. The cells were stained with DCF-DA.
Methods: Neural stem cells were treated as described above.

[6] = tested on: co-stimulatory molecules in neural stem cells
Fas on HL60 cells = assay: Cell surface Fas expression, flow cytometry with anti-Fas; assay type: cell-based
Description: Methods: HL60 cells were incubated with insulin or under in conditions of low glucose overnight. Cells were then harvested, stained with fluorescent labeled anti-Fas, or with isotype controls as indicated. […] Data were analyzed using Becton Dickinson CellQuest software.

Which “levels of these molecules (Fas and B7)” value (Fas and B7) does the source give for `O=CC[C@@H](O)[C@H](O)[C@H](O)CO` [2-deoxyglucose] here?
Its value is “substantial reductions”.

`OO` [H2O2, Hydrogen Peroxide] was tested. Which “cell surface expression of B7.2” value (B7.2 on HL60 cells) did it give?
The value was “increased cell surface expression of B7.2”.

And the “cell surface expression of B7.2” value [1]?
The value was “increased cell surface expression of B7.2”.

And the “cell surface expression of B7.2” value [2]?
The value was “increased cell surface expression of B7.2”.

And the “cell surface expression of B7.2” value (B7.2 on U937 cells)?
The value was “increased cell surface expression of B7.2”.

What about the B7 expression (B7 on MCF7 cells) of the same molecule?
The B7 expression was “increase in B7”.

What about the “level of expression of B7.1” value [3] of the same molecule?
The value was “increases”.

What about the “level of expression of Fas” value [4] of the same molecule?
Its value is “increases”.

Which results are given for `CCO` [alcohol, ethanol]?
reactive oxygen [5]: increase reactive oxygen; induction of co-stimulatory molecules [6]: increased induction of co-stimulatory molecules

How did the “cell surface Fas expression” value (Fas on HL60 cells; HL60 cells incubated with insulin overnight) turn out when insulin was run?
The value was “loss of cell surface Fas expression”.

And the “reduction of levels of Fas” value (Fas on HL60 cells; addition of insulin to cells in culture)?
Its value is “ten-fold”.
